# Measured values: patent publication US20180049984A1 (priority 2014, published 2018)
# Tested on: Bp
# Parameters: species or system BALB/c mice
# Settings: mouse, in vivo
substance,measurement,value
"gentamicin [free (i.e., unencapsulated) gentamicin]","bacterial burdens in lungs, livers, and spleens",10^3-10^5 CFUs/organ
same,time to death of all mice after infection,≤ 4 days
